US11846640B2, “Identification of anticoagulants in a sample” (DSM IP Assets B.V., priority 2013, dated 2023)

What was measured:
Format in all cases: biochemical, human
[1] = system: normal plasma pool (NPP); assay: PiCT Method 1 (standard Pefakit PiCT) clotting time on ACL TOP 500; conditions: for Clotting time with PiCT ® Method 1: spiked plasma
Text: As described by Korte et al. (supra) or in EP 1240528, Pefakit® PiCT® is a functional clotting assay based on the direct activation of the prothrombinase complex which results in a fine-tuned analytical output directly proportional to the final anticoagulant activity of the factor Xa or factor IIa inhibitors (see Calatzis, Haemostasis 2000, 30:172-174). To perform the Pefakit® PiCT® test (referred to herein as standard “PiCT® or PiCT® Method 1), a defined amount of PiCT® activator (=reagent 1) is added to a sample, such as, e.g., plasma. The mixture is allowed to proceed at 37° C. for a specific period of time. The Start reagent (=reagent 2) is then added to the mixture and the time required for clot formation is measured. The presence of anticoagulants in the samples dose-dependently prolongs the time to clot. Pefakit® PiCT® is adapted to laboratory instruments based on mechanical or optical detection systems, including but not limited to ACL TOP® family (Instrumentation Laboratory), preferably ACL TOP® 500, STA Compact® series (Stago) or the BCS® XP series (Siemens).
The 4 methods (see above) are in more detail described in the Examples. Specific pipetting schemes were designed using NPP spiked with incremental amounts of anticoagulants in order to achieve high reproducibility of the test system, which is required for drug identification including use in a POC system. With regards to the ACL TOP® 500 analyzer, PiCT® Method 1 to 4 has been established as follows: • PiCT® Method 1: 50 μl of plasma is incubated for 180 sec with 50 μl of reagent 1 and afterwards 50 μl of reagent 2 is added and the time to clot is recorded on the ACL TOP® 500 (i.e. pipetting scheme: P-50/A-50/I-180/50-S). This method is in particularly useful for detection of UFH, LMWH or hirudin. • PiCT® Method 2: P-75/A-65/I-180/35-S on the ACL TOP® 500 or P-80/A-65/I-180/40-S on the STA Compact® or P-75/A-65/I-180/S-40 on the BCS® XP. This method is in particularly useful for fondaparinux. • PiCT® Method 3: P-90/A-70/I-180/40-S on the ACL TOP® 500 or STA Compact®, or P-70/A-60/I-180/45-S on the BCS® XP. This method is in particularly useful for dabigatran or argatroban. • PiCT® Method 4: P-140/S-45/I160/A-40 on the ACL TOP® 500 or STA Compact®, or P-125/S-45/I-150/A-40 on the BCS® XP. This method is in particularly useful for rivaroxaban or apixaban.
With the normal PiCT®, i.e. PiCT® Method 1, wherein 50 μl of plasma is mixed with the same amount of reagent 1 (PiCT® activator), incubated for 180 sec and mixed with the same amount of reagent 2 (PiCT® start reagent) in a ACL TOP® 500 analyzer, the presence of NOACs cannot be determined in a sample. This is true even at high levels of said drugs in the sample, i.e. in the range of 300 ng/ml. Thus, in order to determine which NOAC is present in the sample, a combination of PiCT® Method 1 and PiCT® method 4 has to be used (see above for detailed description). To confirm this, spiked plasma samples with different levels of NOACs were prepared and the clotting time measured using first PiCT® Method 1 followed by PiCT® Method 4. […] In case of dabigatran present in the sample, both PiCT® Method 1 (which had to be adapted, i.e. PiCT® Method 3) and 4 are out of range as indicated in bold.

[2] = system: normal plasma pool (NPP); assay: PiCT Method 4 (inverted PiCT) clotting time on ACL TOP 500; conditions: for Clotting time: Table 10A, PiCT Method 4, NPP spiked, mean n = 4; for PiCT ® method 4 clotting time: Table 11
Experimental: The present invention is in one aspect directed to the use of a clotting assay, in particular the PiCT® testing method on a detection system such as e.g. the ACL TOP® 500 analyzer and to a method to quantitatively and qualitatively detect anticoagulants in a sample, e.g. blood or plasma. […] PiCT® Method 4 or PiCT® inverted includes that first the start reagent is added to the sample, the mixture allowed to proceed according to the manufacturer's instructions followed by addition of the activator, i.e. a reversed order compared to standard PiCT® (see above). PiCT® Method 1 to 4 is described in more detail in the Examples.
The 4 methods (see above) are in more detail described in the Examples. Specific pipetting schemes were designed using NPP spiked with incremental amounts of anticoagulants in order to achieve high reproducibility of the test system, which is required for drug identification including use in a POC system. With regards to the ACL TOP® 500 analyzer, PiCT® Method 1 to 4 has been established as follows: • PiCT® Method 1: 50 μl of plasma is incubated for 180 sec with 50 μl of reagent 1 and afterwards 50 μl of reagent 2 is added and the time to clot is recorded on the ACL TOP® 500 (i.e. pipetting scheme: P-50/A-50/I-180/50-S).
After calculation of the RR for the different kind of anticoagulants (see Example 1) samples of NPP spiked with incremental amounts of anticoagulants were used in the ACL TOP® 500, wherein 45 μl start reagent was incubated with 140 μl plasma for 60 sec. The time to clot was recorded after addition of 40 μl of activator (i.e. so-called inverted PiCT®).

[3] = system: plasma samples; assay: aPTT (HemosIL aPTT SP) clotting time; conditions: for Clotting time with aPTT: Table 6, spiked plasma, mean
Experimental: In order to address the above question, i.e. to determine the nature of an anticoagulant in a sample, a combination of several methods has to be performed, including PiCT® Method 1, PiCT® Method 4, aPTT (HemosIL™ aPTT SP), PT (HemosIL™ PT recombiplastin), and sometimes even a modified PiCT® Method 1 wherein polybrene has been added. In order to simulate this, plasma samples spiked with different levels of anticoagulants were analyzed using the ACL TOP® 500 analyzer. For each drug, a specific pattern was obtained, i.e. clotting times within the RR and clotting times above the RR, depending on the used testing method, which is unique at least for the class of anticoagulant or even for a specific anticoagulant.

SMILES: CC1CNc2c(cccc2S(=O)(=O)N[C@@H](CCCNC(=N)N)C(=O)N2CC[C@@H](C)C[C@@H]2C(=O)O)C1 (stereo partly shown) [argatroban]
- Clotting time with PiCT ® Method 1 ([1]; Table 6, 0.3 μg, mean): 98.5 s
- Clotting time with PiCT ® Method 1 ([1]; Table 6, 1.5 μg, mean): 150.3 s
- Clotting time with PiCT ® Method 4 ([2]; Table 4, NPP spiked with 0.3 μg per ml): 147 s
- Clotting time with PiCT ® Method 4 ([2]; Table 6, spiked plasma, 0.3 μg, mean): 147.4 s
- Clotting time with PiCT ® Method 4 ([2]; Table 6, spiked plasma, 1.5 μg, mean): 300.0 s
- Clotting time with aPTT ([3]; 0.3 μg): 61.7 s
- Clotting time with aPTT ([3]; 1.5 μg): 106.2 s

SMILES: O=C(NC[C@H]1CN(c2ccc(N3CCOCC3=O)cc2)C(=O)O1)c1ccc(Cl)s1 [rivaroxaban]
- Clotting time with PiCT ® Method 1 ([1]; Table 5, 20 ng per ml (title: Method 3 for dabigatran)): 17 s
- Clotting time with PiCT ® Method 1 ([1]; Table 5, 35 ng per ml (title: Method 3 for dabigatran)): 18 s
- Clotting time with PiCT ® Method 1 ([1]; Table 5, 300 ng per ml (title: Method 3 for dabigatran)): 29.3 s
- Clotting time with PiCT ® Method 1 ([1]; Table 6, 50 ng, mean): 19.0 s
- Clotting time with PiCT ® Method 1 ([1]; Table 6, 200 ng, mean): 25.5 s
- Clotting time with standard PiCT (Method 1) relative to reference range (RR) ([1]; concentrations in the range of about 300 ng/ml in the sample): in the RR
- Clotting time with PiCT ® Method 4 ([2]; Table 4, NPP spiked with 20 ng per ml): 70 s
- Clotting time with PiCT ® Method 4 ([2]; Table 4, NPP spiked with 35 ng per ml): 80 s
- Clotting time with PiCT ® Method 4 ([2]; Table 5, spiked plasma, 20 ng per ml): 70 s
- Clotting time with PiCT ® Method 4 ([2]; Table 5, spiked plasma, 35 ng per ml): 80 s
- Clotting time with PiCT ® Method 4 ([2]; Table 5, spiked plasma, 300 ng per ml): 162.1 s
- Clotting time with PiCT ® Method 4 ([2]; Table 6, spiked plasma, 50 ng, mean): 83.6 s
- Clotting time with PiCT ® Method 4 ([2]; Table 6, spiked plasma, 200 ng, mean): 132.8 s
- Clotting time ([2]; 5 ng/ml): 71 s
- Clotting time ([2]; 10 ng/ml): 83 s
- Clotting time ([2]; 50 ng/ml): 118 s
- Clotting time ([2]; 100 ng/ml): 149 s
- Clotting time ([2]; 200 ng/ml): 191 s
- Clotting time ([2]; 300 ng/ml): 220 s
- Clotting time ([2]; 400 ng/ml): 248 s
- Clotting time ([2]; 500 ng/ml): 270 s
- Clotting time ([2]; 600 ng/ml): 278 s
- PiCT ® method 4 clotting time ([2]; spiked plasma, 20 ng/mL (wash off level)): 70 sec (n = 3)
- PiCT ® method 4 clotting time ([2]; spiked plasma, 35 ng/mL (wash off level)): 80 sec (n = 3)
- Clotting time with aPTT ([3]; 50 ng): 34.5 s
- Clotting time with aPTT ([3]; 200 ng): 49.6 s
- aPTT clotting time relative to reference range (RR) ([3]; only at higher doses, in the range of 200 ng or more): above the RR
